{
  "source": "ChEMBL document CHEMBL4411303",
  "about": "“Synthesis of tetrazole derivatives bearing pyrrolidine scaffold and evaluation of their antifungal activity against Candida albicans” (Eur J Med Chem, 2019)",
  "assay_type_in_all_cases": "functional",
  "key": {"Candida albicans [1]": {"tested_on": "Candida albicans", "test": "Antifungal activity against Candida albicans ATCC 90028 assessed as planktonic growth inhibition at 0.17 uM after 48 hrs by M27-A3 protocol based method relative to control", "conditions": "ATCC 90028, 48 h, read-out: GI"}, "Candida albicans [2]": {"tested_on": "Candida albicans", "test": "Antifungal activity against Candida albicans ATCC 90028 assessed as planktonic growth inhibition at 0.35 uM after 48 hrs by M27-A3 protocol based method relative to control", "conditions": "ATCC 90028, 48 h, read-out: GI"}, "Candida albicans [3]": {"tested_on": "Candida albicans", "test": "Antifungal activity against Candida albicans ATCC 90028 assessed as planktonic growth inhibition at 0.09 uM after 48 hrs by M27-A3 protocol based method relative to control", "conditions": "ATCC 90028, 48 h, read-out: GI"}, "Candida albicans [4]": {"tested_on": "Candida albicans", "test": "Fungicidal activity against Candida albicans ATCC 90028 assessed as log reduction in fungal load incubated for 48 hrs followed by replating on sabouraud dextrose agar plate and measured after 48 hrs"}, "Candida albicans [5]": {"tested_on": "Candida albicans", "test": "Antifungal activity against Candida albicans ATCC 90028 assessed as planktonic growth inhibition at 11.07 uM after 48 hrs by M27-A3 protocol based method relative to control", "conditions": "ATCC 90028, 48 h, read-out: GI"}, "Candida albicans [6]": {"tested_on": "Candida albicans", "test": "Antifungal activity against Candida albicans ATCC 90028 assessed as planktonic growth inhibition at 5.53 uM after 48 hrs by M27-A3 protocol based method relative to control", "conditions": "ATCC 90028, 48 h, read-out: GI"}, "Candida albicans [7]": {"tested_on": "Candida albicans", "test": "Antifungal activity against Candida albicans ATCC 90028 assessed as planktonic growth inhibition at 0.69 uM after 48 hrs by M27-A3 protocol based method relative to control", "conditions": "ATCC 90028, 48 h, read-out: GI"}, "Candida albicans [8]": {"tested_on": "Candida albicans", "test": "Antifungal activity against Candida albicans ATCC 90028 assessed as planktonic growth inhibition at 22.13 uM after 48 hrs by M27-A3 protocol based method relative to control", "conditions": "ATCC 90028, 48 h, read-out: GI"}, "Candida albicans [9]": {"tested_on": "Candida albicans", "test": "Antifungal activity against Candida albicans ATCC 90028 assessed as planktonic growth inhibition at 44.26 uM after 48 hrs by M27-A3 protocol based method relative to control", "conditions": "ATCC 90028, 48 h, read-out: GI"}, "Candida albicans [10]": {"tested_on": "Candida albicans", "test": "Antifungal activity against Candida albicans ATCC 90028 assessed as planktonic growth inhibition at 2.77 uM after 48 hrs by M27-A3 protocol based method relative to control", "conditions": "ATCC 90028, 48 h, read-out: GI"}, "Candida albicans [11]": {"tested_on": "Candida albicans", "test": "Antifungal activity against Candida albicans ATCC 90028 assessed as planktonic growth inhibition at 1.38 uM after 48 hrs by M27-A3 protocol based method relative to control", "conditions": "ATCC 90028, 48 h, read-out: GI"}, "Candida albicans [12]": {"tested_on": "Candida albicans", "test": "Antifungal activity against Candida albicans ATCC 90028 assessed as planktonic growth inhibition at 10.95 uM after 48 hrs by M27-A3 protocol based method relative to control", "conditions": "ATCC 90028, 48 h, read-out: GI"}, "Candida albicans [13]": {"tested_on": "Candida albicans", "test": "Antifungal activity against Candida albicans ATCC 90028 assessed as planktonic growth inhibition at 2.74 uM after 48 hrs by M27-A3 protocol based method relative to control", "conditions": "ATCC 90028, 48 h, read-out: GI"}, "Candida albicans [14]": {"tested_on": "Candida albicans", "test": "Antifungal activity against Candida albicans ATCC 90028 assessed as planktonic growth inhibition at 43.78 uM after 48 hrs by M27-A3 protocol based method relative to control", "conditions": "ATCC 90028, 48 h, read-out: GI"}, "Candida albicans [15]": {"tested_on": "Candida albicans", "test": "Antifungal activity against Candida albicans ATCC 90028 assessed as planktonic growth inhibition at 1.37 uM after 48 hrs by M27-A3 protocol based method relative to control", "conditions": "ATCC 90028, 48 h, read-out: GI"}, "Candida albicans [16]": {"tested_on": "Candida albicans", "test": "Antifungal activity against Candida albicans ATCC 90028 assessed as planktonic growth inhibition at 5.47 uM after 48 hrs by M27-A3 protocol based method relative to control", "conditions": "ATCC 90028, 48 h, read-out: GI"}, "Candida albicans [17]": {"tested_on": "Candida albicans", "test": "Antifungal activity against Candida albicans ATCC 90028 assessed as planktonic growth inhibition at 21.89 uM after 48 hrs by M27-A3 protocol based method relative to control", "conditions": "ATCC 90028, 48 h, read-out: GI"}, "Candida albicans [18]": {"tested_on": "Candida albicans", "test": "Antifungal activity against Candida albicans ATCC 90028 assessed as planktonic growth inhibition at 0.34 uM after 48 hrs by M27-A3 protocol based method relative to control", "conditions": "ATCC 90028, 48 h, read-out: GI"}, "Candida albicans [19]": {"tested_on": "Candida albicans", "test": "Antifungal activity against Candida albicans ATCC 90028 assessed as planktonic growth inhibition at 0.68 uM after 48 hrs by M27-A3 protocol based method relative to control", "conditions": "ATCC 90028, 48 h, read-out: GI"}},
  "data": [
    {"compound": "Cc1ccc(-c2nnn(CCCN3CCCC3c3ccc(C)cc3)n2)cc1", "note": "(configuration not stated)", "values": [
      {"measurement": "inhibition of growth at 0.17 µM", "setting": "Candida albicans [1]", "value": 99.3, "unit": "%"},
      {"measurement": "inhibition of growth at 0.35 µM", "setting": "Candida albicans [2]", "value": 99.1, "unit": "%"},
      {"measurement": "inhibition of growth at 0.09 µM", "setting": "Candida albicans [3]", "value": 99, "unit": "%"},
      {"measurement": "log(activity)", "setting": "Candida albicans [4]", "value": -0.6},
      {"measurement": "inhibition of growth at 11.07 µM", "setting": "Candida albicans [5]", "value": 98.9, "unit": "%"},
      {"measurement": "inhibition of growth at 5.53 µM", "setting": "Candida albicans [6]", "value": 99.3, "unit": "%"},
      {"measurement": "inhibition of growth at 0.69 µM", "setting": "Candida albicans [7]", "value": 99.2, "unit": "%"},
      {"measurement": "inhibition of growth at 22.13 µM", "setting": "Candida albicans [8]", "value": 99.3, "unit": "%"},
      {"measurement": "inhibition of growth at 44.26 µM", "setting": "Candida albicans [9]", "value": 99.6, "unit": "%"},
      {"measurement": "inhibition of growth at 2.77 µM", "setting": "Candida albicans [10]", "value": 99, "unit": "%"},
      {"measurement": "inhibition of growth at 1.38 µM", "setting": "Candida albicans [11]", "value": 99, "unit": "%"}
    ]},
    {"compound": "Cc1ccc(-c2nnn(CCCN3CCCC3c3ccc(F)cc3)n2)cc1", "note": "(configuration not stated)", "values": [
      {"measurement": "inhibition of growth at 10.95 µM", "setting": "Candida albicans [12]", "value": 99.4, "unit": "%"},
      {"measurement": "inhibition of growth at 0.17 µM", "setting": "Candida albicans [1]", "value": 99.1, "unit": "%"},
      {"measurement": "inhibition of growth at 0.09 µM", "setting": "Candida albicans [3]", "value": 99.1, "unit": "%"},
      {"measurement": "inhibition of growth at 2.74 µM", "setting": "Candida albicans [13]", "value": 99.2, "unit": "%"},
      {"measurement": "log(activity)", "setting": "Candida albicans [4]", "value": -0.3},
      {"measurement": "inhibition of growth at 43.78 µM", "setting": "Candida albicans [14]", "value": 98.9, "unit": "%"},
      {"measurement": "inhibition of growth at 1.37 µM", "setting": "Candida albicans [15]", "value": 99.2, "unit": "%"},
      {"measurement": "inhibition of growth at 5.47 µM", "setting": "Candida albicans [16]", "value": 99, "unit": "%"},
      {"measurement": "inhibition of growth at 21.89 µM", "setting": "Candida albicans [17]", "value": 98.7, "unit": "%"},
      {"measurement": "inhibition of growth at 0.34 µM", "setting": "Candida albicans [18]", "value": 99.2, "unit": "%"},
      {"measurement": "inhibition of growth at 0.68 µM", "setting": "Candida albicans [19]", "value": 99.1, "unit": "%"}
    ]}
  ]
}
